Source: ChEMBL document CHEMBL1136258, “Design, synthesis and antifungal activity of a novel water soluble prodrug of antifungal triazole” (Bioorg Med Chem Lett, 2003)
Where “and” joins values, the source holds several entries; their conditions need not be identical. Equal entries are not always repeated.

Experiments:
[1] = Half life in human plasma; Not detected; format: ADME, cell-free
[2] = Half life in human plasma; format: ADME, cell-free
[3] = system: Rattus norvegicus; assay: Efficacy against Candida albicans CY3003 on day 14th after peroral administration in rat; format: functional; conditions: po
[4] = (§1) Half life in rat plasma; format: ADME; conditions: plasma
[5] = Half life in monkey plasma; Not detected; format: ADME, cell-free; conditions: cercopithecidae
[6] = Half life in monkey plasma; format: ADME, cell-free; conditions: cercopithecidae
[7] = system: Rattus norvegicus; assay: Efficacy against Candida tropicalis CY5042 on day 14th after intravenous administration in rat; format: functional
[8] = system: Rattus norvegicus; assay: Efficacy against […] CF924390 on day 14th after intravenous administration in rat; format: functional
[9] = Solubility in water; format: physicochemical
[10] = system: Rattus norvegicus; assay: Efficacy against Candida albicans CY1002 on day 14th after intravenous administration in rat; format: functional
[11] = system: Rattus norvegicus; assay: Efficacy against […] CF924390 on day 14th after peroral administration in rat; format: functional
[12] = system: Rattus norvegicus; assay: Efficacy against Candida tropicalis CY5042 on day 14th after peroral administration in rat; format: functional; conditions: po
[13] = system: Rattus norvegicus; assay: Efficacy against […] CY1003 on day 14th after intravenous administration in rat; format: functional
[14] = organism: Rattus norvegicus; assay: Half life in rat plasma; Not detected; format: ADME
[15] = system: Rattus norvegicus; assay: Efficacy against Candida albicans CY3003 on day 14th after intravenous administration in rat; format: functional
[16] = system: Rattus norvegicus; assay: Efficacy against Candida albicans CY1002 on day 14th after peroral administration in rat; format: functional; conditions: po
[17] = system: Rattus norvegicus; assay: Efficacy against […] CY1003 on day 14th after peroral administration in rat; format: functional; conditions: po
[18] = organism: Rattus norvegicus; assay: as §1; format: ADME

With `CNCC(=O)OCc1cccnc1N(C)C(=O)OC(C)[n+]1cnn(C[C@](O)(c2cc(F)ccc2F)[C@@H](C)c2nc(-c3ccc(C#N)cc3)cs2)c1.[Cl-]` (stereo partly drawn) the T1/2 [1] was “Not detected”, the half-life [2] was under 1 min and the ED50 [3] was 2.6 µmol/kg. For the same compound, the half-life [4] was under 1 min, the T1/2 [5] was “Not detected” and the half-life [6] was under 1 min. The ED50 [7] was 0.9 µmol/kg, the ED50 [8] was 6.8 µM/kg and the ED50 ([8]; Rattus norvegicus, iv, read-out: ED50) was 6 µmol/kg. It also gave a solubility [9] of over 100000 µg/mL, an ED50 [10] of 4 µmol/kg and an ED50 [11] of 8.9 µM/kg. For the same compound, the ED50 ([11]; Rattus norvegicus, po, read-out: ED50) was 9.9 µmol/kg, the ED50 [12] was 0.8 µmol/kg and the ED50 [13] was 12 µmol/kg. For the same compound, the T1/2 [14] was “Not detected”, the ED50 [15] was 1.5 µmol/kg and the ED50 [16] was 4 µmol/kg. For the same compound, the ED50 [17] was 14 µmol/kg.
Work on `CC(=O)OCc1ccccc1N(C)C(=O)OC[n+]1cnn(C[C@](O)(c2cc(F)ccc2F)[C@@H](C)c2nc(-c3ccc(C#N)cc3)cs2)c1.[Cl-]` yielded a solubility [9] of 1000 µg/mL.
In the case of `CNCC(=O)OCc1cc(F)c(F)cc1N(C)C(=O)OC(C)[n+]1cnn(C[C@](O)(c2cc(F)ccc2F)[C@@H](C)c2nc(-c3ccc(C#N)cc3)cs2)c1.[Cl-]` (stereo partly drawn), the T1/2 [2] was 8 min, the half-life [2] was 6 min and the T1/2 [18] was < 2 min and 5 min. It also gave a half-life [6] of 6 min and a solubility [9] of over 10000 µg/mL.
Work on `CNCC(=O)OCc1cc(F)ccc1N(C)C(=O)OC(C)[n+]1cnn(C[C@](O)(c2cc(F)ccc2F)[C@@H](C)c2nc(-c3ccc(C#N)cc3)cs2)c1.[Cl-]` (stereo partly drawn) yielded a solubility [9] of over 10000 µg/mL.
In the case of `CNCC(=O)OCc1c(F)cccc1N(C)C(=O)OC(C)[n+]1cnn(C[C@](O)(c2cc(F)ccc2F)[C@@H](C)c2nc(-c3ccc(C#N)cc3)cs2)c1.[Cl-]` (stereo partly drawn), the half-life [2] was 2 min, the half-life [4] was under 2 min and the T1/2 [18] was 3 min. It also gave a T1/2 [6] of 3 min, a half-life [6] of 2 min and a solubility [9] of over 10000 µg/mL.
In the case of `CCC(C)n1ncn(-c2ccc(N3CCN(c4ccc(OCC5COC(Cn6cncn6)(c6ccc(Cl)cc6Cl)O5)cc4)CC3)cc2)c1=O` (stereo not drawn) [ITRACONAZOLE], the ED50 [3] was 1.7 µmol/kg, the ED50 [11] was 7.2 µM/kg and 2.5 µM/kg and the ED50 [12] was 1.7 µmol/kg. It also gave an ED50 [16] of 4.7 µmol/kg and an ED50 [17] of 8.9 µmol/kg.
`C[C@@H](c1nc(-c2ccc(C#N)cc2)cs1)[C@](O)(Cn1c[n+](COC(=O)N(C)c2ccccc2)cn1)c1cc(F)ccc1F.[Cl-]` gave a half-life [4] of 1740 min and a solubility [9] of under 1000 µg/mL.
Compound `CC(=O)OC[C@@H]1CCCN1C(=O)OC[n+]1cnn(C[C@](O)(c2cc(F)ccc2F)[C@@H](C)c2nc(-c3ccc(C#N)cc3)cs2)c1.[I-]` has a solubility [9] of under 1000 µg/mL.
`CNCC(=O)OCc1ccc(Cl)cc1N(C)C(=O)OC(C)[n+]1cnn(C[C@](O)(c2cc(F)ccc2F)[C@@H](C)c2nc(-c3ccc(C#N)cc3)cs2)c1.[Cl-]` (stereo partly drawn) gave a T1/2 [2] of 4 min, a half-life [2] of 3 min and a half-life [4] of under 2 min. The T1/2 [18] was 4 min, the T1/2 [6] was 2 min and 5 min and the solubility [9] was over 10000 µg/mL.
`CC(=O)OCCCN(C)C(=O)OC[n+]1cnn(C[C@](O)(c2cc(F)ccc2F)[C@@H](C)c2nc(-c3ccc(C#N)cc3)cs2)c1.[I-]` showed a solubility [9] of under 1000 µg/mL.
Compound `CC(=O)OCCN(C)C(=O)OC[n+]1cnn(C[C@](O)(c2cc(F)ccc2F)[C@@H](C)c2nc(-c3ccc(C#N)cc3)cs2)c1.[I-]` has a solubility [9] of under 1000 µg/mL.
